Assay results from publication PMC6647725 (Analytical and Bioanalytical Chemistry, 2019).

Key:
[1] = Stability of stock solutions at − 20 °C; format: physicochemical; conditions: 1 mg/mL stock solution, storage at − 20 °C
Procedure: (§1) The stability of each analyte was investigated in all the previously mentioned matrices. For plasma (both human and mouse), the stability was determined in triplicate at two concentration levels, QC L and QC H, whereas for mouse tissue homogenates only at QC M (except the brain in one stability condition). For all matrices, the following stability conditions were assessed: short term at room temperature (RT), long term at − 20 °C, and after 3 freeze-thaw (F/T) cycles at − 20 °C/RT. Furthermore, for tissue homogenates, the short-term stability in ice-water, long-term stability at − 70 °C, and F/T stability at − 70 °C/ice-water were also evaluated. Additionally, the stability in the final extract was tested. For this, the QC L and QC H final extracts from the plasma, brain, and spleen and the QC M final extract from the liver, kidney and small intestine were stored at 4–8 °C up to 3 days. Lastly, the stability of the stock solutions at − 20 °C was investigated.

[2] = Stability in mouse liver homogenate and its final extract; format: in vitro ADME; conditions: nominal 50 ng/mL
Procedure: as §1, with “After weighing the complete organ, a volume of 3 mL of this solution was added to the liver and small intestine, 2 mL to the kidneys, and 1 mL to the brain and spleen. The tissue/BSA ratio (w/v) of the homogenates were approximately 0.4:1 for the brain and liver, 0.1:1 for the spleen, 0.2:1 for the kidneys, and 0.25:1 for the small intestine. All samples were shaken in the Fast Prep at 6.0 m/s during 60 s. The” for “The”

[3] = Tissue distribution in mice after oral administration; format: in vivo, mouse (FVB); conditions: female FVB mice, 20 mg/kg oral, 24 h
Procedure: After weighing the complete organ, a volume of 3 mL of this solution was added to the liver and small intestine, 2 mL to the kidneys, and 1 mL to the brain and spleen. The tissue/BSA ratio (w/v) of the homogenates were approximately 0.4:1 for the brain and liver, 0.1:1 for the spleen, 0.2:1 for the kidneys, and 0.25:1 for the small intestine. All samples were shaken in the Fast Prep at 6.0 m/s during 60 s. This method was developed to support pharmacokinetic and tissue distribution studies of the CDK4/6 inhibitors in mice (FVB background). These studies were done separately for each drug. Animal housing and studies were conducted according to institutional guidelines complying with Dutch and European Union legislation (approval number from The Dutch Central Animal Testing Committee: AVD301002016595). […] Approximately 50 μL of blood was collected from the tip of the tail at several time points, except at the last one, when 500–1000 μL of blood was collected by cardiac puncture under isoflurane anesthesia. […] Mice were sacrificed by cervical dislocation and the organs were collected and weighed. Plasma was obtained using sodium heparin as anticoagulant after centrifugation at 9000g, 4 °C, for 6 min. When necessary, 10 μL of mouse plasma was diluted with 40 μL of human plasma. […]

[4] = Stability in tissue homogenates; format: in vitro ADME, mouse; conditions: for stability in tissue homogenates (in words): all tissue homogenates and conditions of Table 6
Procedure: as §1

[5] = test system: CDK6; conditions: cited from earlier work
[6] = final extract (listed under liver homogenate), 4–8 °C, 2 d
[7] = liver homogenate, 3 F/T (RT, − 20 °C)
[8] = liver homogenate, 3 F/T (− 70 °C, ice/water bath)
[9] = liver homogenate, LT − 20 °C, 1 m
[10] = liver homogenate, LT − 70 °C, 1 m
[11] = liver homogenate, ice/water bath, 3 h

stability of stock solutions (time stable) [1]	Mean concentration [2, 6] [ng/mL]	Mean concentration [2, 7] [ng/mL]	Accuracy (% Bias) [2, 8] [%]	Mean concentration [2, 8] [ng/mL]	Mean concentration [2, 9] [ng/mL]	Mean concentration [2, 10] [ng/mL]	Mean concentration ([2]; liver homogenate, RT, 1 d) [ng/mL]	Mean concentration [2, 11] [ng/mL]	concentration in the brain compared with other tissues [3]	stability in tissue homogenates (in words) [4]	time stable in kidney and spleen homogenates ([4]; room temperature and ice/water bath)	Accuracy (% Bias) [2, 7] [%]	Accuracy (% Bias) [2, 9] [%]	Accuracy (% Bias) [2, 10] [%]	Accuracy (% Bias) [2, 11] [%]	SMILES	tissue distribution ([3]; spleen, kidney, liver, small intestine)	IC50 [5] [nM]
at least 12 months	[…]	47.7	0.1	50.0	32.4	[…]	41.9	45.4	[…]	showed instability in tissue homogenates	at least 3 h					CN(C)C(=O)c1cc2cnc(Nc3ccc(N4CCNCC4)cn3)nc2n1C1CCCC1 [Ribociclib]	highly distributed in the spleen and kidney, followed by the liver and small intestine	39
[…]	[…]	52.5	0.1	[…]	[…]	[…]	[…]	51.9		stable in all matrices at all conditions		[…]	1.4	[…]	3.8	CCN1CCN(Cc2ccc(Nc3ncc(F)c(-c4cc(F)c5nc(C)n(C(C)C)c5c4)n3)nc2)CC1 [Abemaciclib]		[…]
